ChEMBL document CHEMBL1201862, “PubChem BioAssay data set” (2004)
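Method: 48-hour compound exposure of cells in 96-well plates, five concentrations, linear interpolation of endpoints. At the GI50, growth is halved.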 Activity calls are given as the source filed them. Cut-off read from the data, not from the text of the source: active = GI50 up to about 1.1 µM and inactive = higher.

Legend:
Experiment in all cases: growth of human tumour cells (NCI), 48 h
U-251 = tested on: U-251
OVCAR-4 = tested on: OVCAR-4
NCI-H522 = tested on: NCI-H522
TK-10 = tested on: TK-10
RPMI-8226 = tested on: RPMI-8226
XF498 = tested on: XF498
HT-29 = tested on: HT-29
SK-MEL-28 = tested on: SK-MEL-28
SF-295 = tested on: SF-295
UACC-257 = tested on: UACC-257
OVCAR-5 = tested on: OVCAR-5
DMS-114 = tested on: DMS-114
SF-268 = tested on: SF-268
SK-MEL-2 = tested on: SK-MEL-2
K562 = tested on: K562
DLD-1 = tested on: DLD-1
KM-20L2 = tested on: KM-20L2
SK-OV-3 = tested on: SK-OV-3
SW-620 = tested on: SW-620
RXF 393 = tested on: RXF 393
HCT-116 = tested on: HCT-116
UACC-62 = tested on: UACC-62
HOP-62 = tested on: HOP-62
OVCAR-8 = tested on: OVCAR-8
OVCAR-3 = tested on: OVCAR-3
SK-MEL-5 = tested on: SK-MEL-5
EKVX = tested on: EKVX
HOP-18 = tested on: HOP-18
LOX IMVI = tested on: LOX IMVI
SNB-19 = tested on: SNB-19
IGROV-1 = tested on: IGROV-1
DMS-273 = tested on: DMS-273
MOLT-4 = tested on: MOLT-4
SNB-75 = tested on: SNB-75
786-0 = tested on: 786-0
HCC 2998 = tested on: HCC 2998
HCT-15 = tested on: HCT-15
SN12C = tested on: SN12C
NCI-H23 = tested on: NCI-H23
SF-539 = tested on: SF-539
Malme-3M = tested on: Malme-3M
M14 = tested on: M14
NCI-H226 = tested on: NCI-H226
A549 = tested on: A549
CCRF-CEM = tested on: CCRF-CEM
SNB-78 = tested on: SNB-78
CAKI-1 = tested on: CAKI-1
A498 = tested on: A498
M19-MEL = tested on: M19-MEL
HOP-92 = tested on: HOP-92
UO-31 = tested on: UO-31
LXFL 529 = tested on: LXFL 529
COLO 205 = tested on: COLO 205
KM12 = tested on: KM12
SR = tested on: SR
ACHN = tested on: ACHN
NCI-H460 = tested on: NCI-H460

In the case of CC(=O)Nc1ccc(/C=C(\NC(=O)c2ccccc2)c2nc3ccc4c(c3[nH]2)C(=O)c2ccccc2C4=O)cc1, the GI50 (U-251) is reported as 16.4 µM (inactive), the GI50 (OVCAR-4) is reported as 56.8 µM (inactive) and the GI50 (NCI-H522) is reported as 4.9 µM (inactive). For the same compound, the GI50 (TK-10) was 17.5 µM (inactive), the GI50 (RPMI-8226) was 4.46 µM (inactive) and the GI50 (XF498) was 84.1 µM (inactive). For the same compound, the GI50 (HT-29) was 45.6 µM (inactive), the GI50 (SK-MEL-28) was 45 µM (inactive) and the GI50 (SF-295) was 22.6 µM (inactive). The GI50 (UACC-257) was > 100 µM (inactive), the GI50 (OVCAR-5) was > 100 µM (inactive) and the GI50 (DMS-114) was 17.9 µM (inactive). For the same compound, the GI50 (SF-268) was 5.94 µM (inactive), the GI50 (SK-MEL-2) was 48.8 µM (inactive) and the GI50 (K562) was 19.9 µM (inactive). The GI50 (DLD-1) was 13.8 µM (inactive), the GI50 (KM-20L2) was 46.5 µM (inactive) and the GI50 (SK-OV-3) was 72.4 µM (inactive). For the same compound, the GI50 (SW-620) was 18.9 µM (inactive), the GI50 (RXF 393) was 4.66 µM (inactive) and the GI50 (HCT-116) was 12.2 µM (inactive). For the same compound, the GI50 (UACC-62) was 17.9 µM (inactive), the GI50 (HOP-62) was > 100 µM (inactive) and the GI50 (OVCAR-8) was 22.1 µM (inactive). The GI50 (OVCAR-3) was 12.4 µM (inactive), the GI50 (SK-MEL-5) was 21.8 µM (inactive) and the GI50 (EKVX) was 24.3 µM (inactive). For the same compound, the GI50 (HOP-18) was 11 µM (inactive), the GI50 (LOX IMVI) was 15.1 µM (inactive) and the GI50 (SNB-19) was 35.2 µM (inactive). For the same compound, the GI50 (IGROV-1) was 7.13 µM (inactive), the GI50 (DMS-273) was 32.7 µM (inactive) and the GI50 (MOLT-4) was 2.88 µM (inactive). For the same compound, the GI50 (SNB-75) was 9.51 µM (inactive), the GI50 (786-0) was 35.6 µM (inactive) and the GI50 (HCC 2998) was > 100 µM (inactive). For the same compound, the GI50 (HCT-15) was 39.2 µM, the GI50 (SN12C) was 25.4 µM (inactive) and the GI50 (NCI-H23) was 21.6 µM (inactive). The GI50 (SF-539) was 17.5 µM (inactive), the GI50 (Malme-3M) was > 100 µM (inactive) and the GI50 (M14) was 43.1 µM (inactive). For the same compound, the GI50 (NCI-H226) was > 100 µM (inactive), the GI50 (A549) was 12.5 µM (inactive) and the GI50 (CCRF-CEM) was 0.904 µM (active). For the same compound, the GI50 (SNB-78) was 58.9 µM (inactive), the GI50 (CAKI-1) was 5.02 µM (inactive) and the GI50 (A498) was 7.78 µM (inactive). The GI50 (M19-MEL) was 78.3 µM (inactive), the GI50 (HOP-92) was 22.9 µM (inactive) and the GI50 (UO-31) was 1.59 µM (inactive). For the same compound, the GI50 (LXFL 529) was 28.8 µM (inactive) and the GI50 (COLO 205) was 57.8 µM (inactive).
In the case of COC(=O)CCC(=O)N1C/C(=C\c2ccccc2)C(=O)/C(=C/c2ccccc2)C1, the GI50 (U-251) is reported as 1.24 µM (inactive), the GI50 (OVCAR-4) is reported as 2.03 µM (inactive) and the GI50 (TK-10) is reported as 4.41 µM (inactive). For the same compound, the GI50 (RPMI-8226) was 0.416 µM (active), the GI50 (XF498) was 5.87 µM (inactive) and the GI50 (KM12) was 0.807 µM (active). For the same compound, the GI50 (HT-29) was 1.72 µM (inactive), the GI50 (SK-MEL-28) was 2.31 µM (inactive) and the GI50 (SF-295) was 2.31 µM (inactive). The GI50 (UACC-257) was 1.89 µM (inactive), the GI50 (OVCAR-5) was 2.7 µM (inactive) and the GI50 (DMS-114) was 1.73 µM (inactive). The GI50 (SF-268) was 2.28 µM (inactive), the GI50 (K562) was 1.43 µM (inactive) and the GI50 (DLD-1) was 2.04 µM (inactive). For the same compound, the GI50 (KM-20L2) was 2.24 µM (inactive), the GI50 (SK-OV-3) was 4.16 µM (inactive) and the GI50 (SW-620) was 0.191 µM (active). The GI50 (RXF 393) was 2.06 µM (inactive), the GI50 (HCT-116) was 0.41 µM (active) and the GI50 (UACC-62) was 2.11 µM (inactive). For the same compound, the GI50 (HOP-62) was 12.6 µM (inactive), the GI50 (OVCAR-8) was 3.1 µM (inactive) and the GI50 (SR) was 1.18 µM (inactive). For the same compound, the GI50 (OVCAR-3) was 2.31 µM (inactive), the GI50 (SK-MEL-5) was 2.2 µM (inactive) and the GI50 (EKVX) was 3.94 µM (inactive). For the same compound, the GI50 (HOP-18) was 2.34 µM (inactive), the GI50 (LOX IMVI) was 0.447 µM (active) and the GI50 (ACHN) was 1.97 µM (inactive). For the same compound, the GI50 (SNB-19) was 3.82 µM (inactive), the GI50 (IGROV-1) was 1.79 µM (inactive) and the GI50 (DMS-273) was 0.708 µM (active). For the same compound, the GI50 (MOLT-4) was 1.83 µM (inactive), the GI50 (SNB-75) was 2.29 µM (inactive) and the GI50 (786-0) was 2.03 µM (inactive). The GI50 (HCC 2998) was 1.67 µM (inactive), the GI50 (HCT-15) was 0.432 µM and the GI50 (SN12C) was 1.86 µM (inactive). The GI50 (NCI-H23) was 2.14 µM (inactive), the GI50 (SF-539) was 2.94 µM (inactive) and the GI50 (Malme-3M) was 2.34 µM (inactive). The GI50 (M14) was 1.98 µM (inactive), the GI50 (NCI-H226) was 3.41 µM (inactive) and the GI50 (NCI-H460) was 2.43 µM (inactive). The GI50 (A549) was 3.64 µM (inactive), the GI50 (CCRF-CEM) was 2.74 µM (inactive) and the GI50 (SNB-78) was 2.77 µM (inactive). For the same compound, the GI50 (CAKI-1) was 1.75 µM (inactive), the GI50 (A498) was 2.24 µM (inactive) and the GI50 (M19-MEL) was 2.39 µM (inactive). For the same compound, the GI50 (HOP-92) was 6.03 µM (inactive), the GI50 (UO-31) was 2.04 µM (inactive) and the GI50 (LXFL 529) was 2.09 µM (inactive). The GI50 (COLO 205) was 2.06 µM (inactive).
